IC50 data for 43 compounds are collected here from US9682931B2, “Aryloyl(oxy or amino)pentafluorosulfanylbenzene compound, pharmaceutically acceptable salt thereof, and prodrugs thereof” (UBE INDUSTRIES, LTD., priority 2013, dated 2017).

Converted amounts (≈) assume the structure as drawn. Where a name gives a salt, the structure may show the parent alone. Read-outs that look alike come from different tables or passages of the source.

For this experiment, the system named is K562 human leukemia-derived cell lines. The experiment in a line: K562 human leukemia cell-proliferation inhibition test. The experiment is classed as cell-based. The method, then:
K562 Human Leukemia Cell-Proliferation Inhibition Test
A cell proliferation inhibition test using K562 cells was performed. The activity in the presence of a test substance was compared to the activity in the presence of green tea polyphenol (GTP). The materials used in the test are as follows.
Cells: K562 human leukemia-derived cell lines (DS Pharma Biomedical Co., Ltd.)
Control Substance: Green Tea Polyphenols, abbreviation: GTP (LKT Laboratories, Inc.)
Culture solution: 10% equine serum-supplemented RPMI1640 medium
A test substance and a control substance were used by dissolving each of them in DMSO. To a solution (0.99 mL) containing K562 cells in a cell concentration of 20,000 cells/mL, a test substance solution or a control substance solution (0.01 mL) was added and the cells were cultured. Seventy two hours later, a part of the cells was stained with trypan blue and viable cells were counted by a counting chamber.
In Table 2, “IC50” denotes the sample concentration inhibiting 50% of cell proliferation

Where [1] appears, read: Homo sapiens, K562, 72 h, K562 cells, 72 hours, viable cells counted with trypan blue, read-out: IC50.
The mark [2] stands for this setting: K562 cells, 72 hours, viable cells counted with trypan blue.

`O=C(/C=C/c1cc(O)c(O)c(O)c1)Nc1ccc(S(F)(F)(F)(F)F)cc1` [Compound 24, 4-(3,4,5-trihydroxycinnamoylamino)pentafluorosulfanylbenzene]: under setting [1], the IC50 amounted to 14 mg/L (≈ 35.2 µM).
On the same count and under the same terms, next, `COc1cc(/C=C/C(=O)Nc2ccc(S(F)(F)(F)(F)F)cc2)ccc1O` [Compound 21, 4-(4-hydroxy-3-methoxycinnamoylamino)pentafluorosulfanylbenzene]: 0.93 mg/L (≈ 2.35 µM); `O=C(Nc1ccc(S(F)(F)(F)(F)F)cc1)c1cccc(O)n1` [Compound 66, 4-(2-hydroxypyridin-6-yl)carbonylaminopentafluorosulfanylbenzene]: 2.3 mg/L (≈ 6.76 µM); `O=C(Nc1ccc(S(F)(F)(F)(F)F)cc1)c1ccc(CO)o1` [Compound 33, 4-(5-hydroxymethylfuran-2-yl)carbonylaminopentafluorosulfanylbenzene]: 2.7 mg/L (≈ 7.87 µM).
`O=C(Nc1ccc(S(F)(F)(F)(F)F)cc1)c1cocn1` [Compound 81, 4-(oxazol-4-yl)carbonylaminopentafluorosulfanylbenzene]: under setting [1], the IC50 is 2 mg/L (≈ 6.36 µM).
The same measure, in the same setting: next, `O=C(Nc1ccc(S(F)(F)(F)(F)F)cc1)c1ncccn1` [Compound 70, 4-(pyrimidin-2-yl)carbonylaminopentafluorosulfanylbenzene]: 1.5 mg/L (≈ 4.61 µM); `O=C(/C=C/c1ccc(O)cc1O)Nc1ccc(S(F)(F)(F)(F)F)cc1` [Compound 51, 4-(2,4-dihydroxycinnamoylamino)pentafluorosulfanylbenzene]: 1.2 mg/L (≈ 3.15 µM).
Compound `Nc1ccc(C(=O)Nc2ccc(S(F)(F)(F)(F)F)cc2)cc1` [Compound 63, 4-(4-aminobenzoylamino)pentafluorosulfanylbenzene hydrochloride salt] came in with an IC50 (Homo sapiens, K562, 72 h) of 0.85 mg/L.
Turning to `O=C(Nc1ccc(S(F)(F)(F)(F)F)cc1)c1ccncn1` [Compound 73, 4-(pyrimidin-4-yl)carbonylaminopentafluorosulfanylbenzene], the IC50 under setting [1] is 2.3 mg/L (≈ 7.07 µM).
The same measure, in the same setting: next, `C=CC(C)(C)Oc1cccc(C(=O)Nc2ccc(S(F)(F)(F)(F)F)cc2)c1` [Compound 48, 4-(3-(1,1-dimethyl-2-propenyloxy)benzoylamino)pentafluorosulfanylbenzene]: 1.9 mg/L (≈ 4.66 µM); `O=C(Nc1ccc(S(F)(F)(F)(F)F)cc1)c1cnccn1` [Compound 79, 4-(pyrazin-2-yl)carbonylaminopentafluorosulfanylbenzene]: 4.2 mg/L (≈ 12.9 µM).
Still for that read-out and setting: the same measure for `COc1ccc(/C=C/C(=O)Nc2ccc(S(F)(F)(F)(F)F)cc2)cc1OCC=C(C)C` [Compound 41, 4-(3-(3-methyl-2-butenyloxy)-4-methoxycinnamoylamino)pentafluorosulfanylbenzene]: 0.81 mg/L (≈ 1.75 µM); for `O=C(Nc1ccc(S(F)(F)(F)(F)F)cc1)n1cccc1` [Compound 80, 4-(pyrrol-1-yl)carbonylaminopentafluorosulfanylbenzene]: 4.9 mg/L (≈ 15.7 µM); for `O=C(Nc1ccc(S(F)(F)(F)(F)F)cc1)c1cc(O)ncn1` [Compound 69, 4-(4-hydroxypyrimidin-6-yl)carbonylaminopentafluorosulfanylbenzene]: 2 mg/L (≈ 5.86 µM).
Same read-out and setting: next, `O=C(Nc1ccc(S(F)(F)(F)(F)F)cc1)c1ccc(F)c(O)c1` [Compound 58, 4-(3-hydroxy-4-fluorobenzoylamino)pentafluorosulfanylbenzene]: 5.3 mg/L (≈ 14.8 µM).
As to `O=C(Nc1ccc(S(F)(F)(F)(F)F)cc1)c1cc2cc(O)c(O)cc2oc1=O` [Compound 74, 4-(6,7-dihydroxycoumarin-3-yl)carbonylaminopentafluorosulfanylbenzene], the IC50 under setting [1] came out at 5 mg/L (≈ 11.8 µM).
Turning to `O=C(Nc1ccc(S(F)(F)(F)(F)F)cc1)c1cnco1` [Compound 82, 4-(oxazol-5-yl)carbonylaminopentafluorosulfanylbenzene], under setting [1], the IC50 worked out at 3.6 mg/L (≈ 11.5 µM).
On the same count and under the same terms, next, `COc1cc(C(=O)Nc2ccc(S(F)(F)(F)(F)F)cc2)ccc1[N+](=O)[O-]` [Compound 59, 4-(4-nitro-3-methoxybenzoylamino)pentafluorosulfanylbenzene]: 1.1 mg/L (≈ 2.76 µM).
Under “Homo sapiens, K562, 72 h”, `C=CC(=O)Nc1ccc(S(F)(F)(F)(F)F)cc1` [Compound 31, 4-acryloylaminopentafluorosulfanylbenzene] showed an IC50 of 0.88 mg/L (≈ 3.22 µM).
Consider `O=C(Nc1ccc(S(F)(F)(F)(F)F)cc1)c1ncc[nH]1` [Compound 78, 4-(imidazol-2-yl)carbonylaminopentafluorosulfanylbenzene], for which the IC50 under setting [1] was found to be 3.4 mg/L (≈ 10.9 µM).
Still for that read-out and setting: the same measure for `O=C(Nc1ccc(S(F)(F)(F)(F)F)cc1)c1ccccn1` [Compound 71, 4-(pyridin-2-yl)carbonylaminopentafluorosulfanylbenzene]: 4.4 mg/L (≈ 13.6 µM); for `C=CCOc1ccc(C(=O)Nc2ccc(S(F)(F)(F)(F)F)cc2)cc1OC` [Compound 28, 4-(4-(2-propenyloxy)-3-methoxybenzoylamino)pentafluorosulfanylbenzene]: 0.8 mg/L (≈ 1.95 µM).
On the same count and under the same terms, the same measure for `C=CCc1cc(/C=C/C(=O)Nc2ccc(S(F)(F)(F)(F)F)cc2)cc(OC)c1O` [Compound 46, 4-(4-hydroxy-5-(2-propenyl)-3-methoxycinnamoylamino)pentafluorosulfanylbenzene]: 2.5 mg/L (≈ 5.74 µM); for `O=C(Nc1ccc(S(F)(F)(F)(F)F)cc1)c1c(O)cc(O)cc1O` [Compound 23, 4-(2,4,6-trihydroxybenzoylamino)pentafluorosulfanylbenzene]: 4.1 mg/L (≈ 11 µM).
For “4-(3,5-dihydroxybenzoylamino)pentafluorosulfanylbenzene [Compound 50]”, the IC50 under setting [2] was 3.5 mg/L.
Consider `O=C(Nc1ccc(S(F)(F)(F)(F)F)cc1)c1ncccc1O` [Compound 68, 4-(3-hydroxypyridin-2-yl)carbonylaminopentafluorosulfanylbenzene], for which the IC50 under setting [1] came out at 4.2 mg/L (≈ 12.3 µM).
The same measure, in the same setting: the same measure for `COc1ccc(/C=C/C(=O)Nc2ccc(S(F)(F)(F)(F)F)cc2)cc1O` [Compound 52, 4-(3-hydroxy-4-methoxycinnamoylamino)pentafluorosulfanylbenzene]: 0.28 mg/L (≈ 0.708 µM).
`O=C(Nc1ccc(S(F)(F)(F)(F)F)cc1)c1ccccc1` [Compound 1, 4-benzoylaminopentafluorosulfanylbenzene] displayed an IC50 (Homo sapiens, K562, 72 h) of 1.5 mg/L (≈ 4.64 µM).
As to `O=C(Nc1ccc(S(F)(F)(F)(F)F)cc1)c1ccc(O)c(F)c1` [Compound 57, 4-(4-hydroxy-3-fluorobenzoylamino)pentafluorosulfanylbenzene], the IC50 under setting [1] came out at 3.3 mg/L (≈ 9.24 µM).
Same read-out and setting: the same measure for `Nc1ccc(C(=O)Nc2ccc(S(F)(F)(F)(F)F)cc2)cc1` [Compound 61, 4-(4-aminobenzoylamino)pentafluorosulfanylbenzene]: 0.086 mg/L (≈ 0.254 µM); for `C/C=C/COc1ccc(/C=C/C(=O)Nc2ccc(S(F)(F)(F)(F)F)cc2)cc1OC` [Compound 42, 4-(4-(2-butenyloxy)-3-methoxycinnamoylamino)pentafluorosulfanylbenzene]: 1.7 mg/L (≈ 3.78 µM).
On the same count and under the same terms, the same measure for `C=CC(C)Oc1ccc(/C=C/C(=O)Nc2ccc(S(F)(F)(F)(F)F)cc2)cc1OC` (stereo not shown) [Compound 44, 4-(4-(1-methyl-2-propenyloxy)-3-methoxycinnamoylamino)pentafluorosulfanylbenzene]: 1 mg/L (≈ 2.22 µM); for `C=CCOc1cccc(C(=O)Nc2ccc(S(F)(F)(F)(F)F)cc2)c1` [Compound 64, 4-(3-allyloxybenzoylamino)pentafluorosulfanylbenzene]: 1.1 mg/L (≈ 2.9 µM).
With `O=C(/C=C/c1ccc(O)c(O)c1)Nc1ccc(S(F)(F)(F)(F)F)cc1` [Compound 56, 4-(3,4-dihydroxycinnamoylamino)pentafluorosulfanylbenzene], the IC50 under setting [2] came out at 0.83 mg/L (≈ 2.18 µM).
Take `C=CCc1cc(C(=O)Nc2ccc(S(F)(F)(F)(F)F)cc2)cc(OC)c1O` [Compound 30, 4-(4-hydroxy-5-(2-propenyl)-3-methoxybenzoylamino)pentafluorosulfanylbenzene]: the IC50 under setting [1] stood at 0.9 mg/L (≈ 2.2 µM).
Consider `O=C(Nc1ccc(S(F)(F)(F)(F)F)cc1)c1ccncc1` [Compound 72, 4-(pyridin-4-yl)carbonylaminopentafluorosulfanylbenzene], for which the IC50 under setting [1] was 0.1 mg/L (≈ 0.308 µM).
The same measure, in the same setting: the same measure for `C/C=C/Cc1cc(/C=C/C(=O)Nc2ccc(S(F)(F)(F)(F)F)cc2)cc(OC)c1O` [Compound 47, 4-(4-hydroxy-5-(2-butenyl)-3-methoxycinnamoylamino)pentafluorosulfanylbenzene]: 3.5 mg/L (≈ 7.79 µM).
`C=CC(=O)Nc1cccc(S(F)(F)(F)(F)F)c1` [Compound 32, 3-acryloylaminopentafluorosulfanylbenzene]: the IC50 (Homo sapiens, K562, 72 h) stood at 4.6 mg/L (≈ 16.8 µM).
For the compound `O=C(Nc1ccc(S(F)(F)(F)(F)F)cc1)c1ccnc(F)c1` [Compound 76, 4-(2-fluoropyridin-4-yl)carbonylaminopentafluorosulfanylbenzene], the IC50 under setting [1] is 2 mg/L (≈ 5.84 µM).
Same read-out and setting: the same measure for `CC(=O)Oc1cc(/C=C/C(=O)Nc2ccc(S(F)(F)(F)(F)F)cc2)cc(OC(C)=O)c1OC(C)=O` [Compound 25, 4-(3,4,5-triacetoxycinnamoylamino)pentafluorosulfanylbenzene]: 6.3 mg/L (≈ 12 µM); for `O=C(Nc1ccc(S(F)(F)(F)(F)F)cc1)c1ccc([N+](=O)[O-])cc1` [Compound 62, 4-(4-nitrobenzoylamino)pentafluorosulfanylbenzene]: 0.78 mg/L (≈ 2.12 µM).
The same measure, in the same setting: the same measure for `O=C(Nc1ccc(S(F)(F)(F)(F)F)cc1)c1cccc(O)c1` [Compound 65, 4-(3-hydroxybenzoylamino)pentafluorosulfanylbenzene]: 0.92 mg/L (≈ 2.71 µM).
Consider `O=C(/C=C/c1ccc2c(c1)OCO2)Nc1ccc(S(F)(F)(F)(F)F)cc1` [Compound 19, 4-(3,4-methylenedioxycinnamoylamino)pentafluorosulfanylbenzene], for which the IC50 (Homo sapiens, K562, 72 h) stood at 0.66 mg/L (≈ 1.68 µM).

For orientation: IC50 means the point on the concentration scale where inhibition reaches its midpoint.
